Experimental data: ChEMBL document CHEMBL3046811, “Syntheses and in vitro biological screening of 1-aryl-10H-[1,2,4]triazolo[3,4:3,4][1,2,4]triazino[5,6-b]indoles” (Med Chem Res, 2013)

Key:
[1] = system: Vaccinia virus; test: Antiviral activity against Vaccinia virus infected African green monkey Vero 76 cells assessed as reduction in plaque number treated after viral infection measured after 3 days by plaque reduction assay; assay type: functional, organism-based; settings: Orthopoxvirus vaccinia, 72 h
[2] = system: Human immunodeficiency virus 1; test: Antiviral activity against Human immunodeficiency virus 1 infected human MT4 cells assessed as protection against virus-induced cytopathogenicity treated before viral infection measured after 4 days by MTT assay; assay type: functional, organism-based; settings: Human immunodeficiency virus 1, MT4, 96 h
[3] = system: Vesicular stomatitis virus; test: Antiviral activity against Vesicular stomatitis virus infected African green monkey Vero 76 cells assessed as reduction in plaque number treated after viral infection measured after 2 days by plaque reduction assay; assay type: functional, organism-based; settings: 48 h
[4] = system: Yellow fever virus; test: Antiviral activity against Yellow fever virus infected Syrian hamster BHK-21 cells assessed as protection against virus-induced cytopathogenicity treated 1 hr after viral infection measured after 3-4 days by MTT method; assay type: functional, organism-based
[5] = Selectivity index, ratio of CC50 for bovine MDBK cells to EC50 for BVDV infected in bovine MDBK cells
[6] = system: Bovine viral diarrhea virus 1; test: Antiviral activity against Bovine viral diarrhea virus 1 infected bovine MDBK cells assessed as protection against virus-induced cytopathogenicity treated 1 hr after viral infection measured after 3-4 days by MTT method; assay type: functional, organism-based; settings: Bovine viral diarrhea virus isolates and strains
[7] = system: Coxsackievirus B2; test: Antiviral activity against Human coxsackievirus B2 infected in African green monkey Vero 76 cells assessed as reduction in plaque number treated after viral infection measured after 3 days by plaque reduction assay; assay type: functional, organism-based; settings: Enterovirus B, 72 h
[8] = system: Respiratory syncytial virus; test: Antiviral activity against Respiratory syncytial virus infected African green monkey Vero 76 cells assessed as reduction in plaque number treated after viral infection measured after 5 days by plaque reduction assay; assay type: functional, organism-based; settings: human respiratory syncytial virus, 120 h
[9] = system: Poliovirus 1; test: Antiviral activity against Human poliovirus 1 strain Sabin infected African green monkey Vero 76 cells assessed as reduction in plaque number treated after viral infection measured after 2 days by plaque reduction assay; assay type: functional, organism-based; settings: Enterovirus C, 48 h
[10] = Cytotoxicity against Chlorocebus aethiops (African green monkey) Vero 76 cells assessed as inhibition of cell viability after 48 to 120 hr by MTT assay; assay type: cell-based; settings: chlorocebus sabaeus
[11] = Cytotoxicity against Bos taurus (bovine) MDBK cells assessed as inhibition of cell viability after 48 to 120 hr by MTT assay; assay type: cell-based; settings: cattle
[12] = system: Human alphaherpesvirus 1; test: Antiviral activity against Human herpesvirus 1 infected African green monkey Vero 76 cells assessed as reduction in plaque number treated after viral infection measured after 3 days by plaque reduction assay; assay type: functional, organism-based; settings: Human alphaherpesvirus 1, Vero, 72 h
[13] = system: Mammalian orthoreovirus 1; test: Antiviral activity against Mammalian orthoreovirus 1 infected Syrian hamster BHK-21 cells assessed as protection against virus-induced cytopathogenicity treated 1 hr after viral infection measured after 3-4 days by MTT method; assay type: functional, organism-based; settings: Mammalian orthoreovirus 1, BHK-21
[14] = Cytotoxicity against Mesocricetus auratus (Syrian golden hamster) BHK21cells assessed as inhibition of cell viability after 48 to 120 hr by MTT assay; assay type: cell-based; settings: BHK-21 cells
[15] = Cytotoxicity against Homo sapiens (human) MT4 cells assessed as inhibition of cell vaibility after 96 hr by MTT assay; assay type: cell-based

SMILES	EC50 [1] [µM]	EC50 [2] [µM]	EC50 [3] [µM]	EC50 [4] [µM]	Ratio CC50/EC50 [5]	EC50 [6] [µM]	EC50 [7] [µM]	EC50 [8] [µM]	EC50 [9] [µM]	CC50 [10] [µM]	CC50 [11] [µM]	EC50 [12] [µM]	EC50 [13] [µM]	CC50 [14] [µM]	CC50 at 96 h [15] [µM]
COc1cc(-c2nnc3nnc4c5ccccc5[nH]c4n23)ccc1O	> 80	> 58	> 80	> 45	>1.11	90	> 80	> 80	> 80	80	> 100	> 80	25	45	58
Clc1cccc(-c2nnc3nnc4c5ccccc5[nH]c4n23)c1	> 60	> 29	> 60	> 55	>1.45	69	> 60	> 60	> 60	60	> 100	> 60	> 55	55	29
O=[N+]([O-])c1ccc(-c2nnc3nnc4c5ccccc5[nH]c4n23)cc1	> 100	> 100	> 100	> 100		> 100	> 100	> 100	> 100	> 100	> 100	> 100	> 100	> 100	> 100
Oc1cccc(-c2nnc3nnc4c5ccccc5[nH]c4n23)c1	> 100	> 100	> 100	> 100		> 100	> 100	> 100	> 100	> 100	> 100	> 100	> 100	> 100	> 100
COc1ccccc1-c1nnc2nnc3c4ccccc4[nH]c3n12	> 20	> 5	> 20	> 23		> 17	> 20	> 20	> 20	20	17	> 20	> 23	23	5
COc1ccc(-c2nnc3nnc4c5ccccc5[nH]c4n23)cc1OC	> 100	> 100	> 100	> 100		> 100	> 100	> 100	> 100	> 100	> 100	> 100	55	> 100	> 100
Fc1ccc(-c2nnc3nnc4c5ccccc5[nH]c4n23)cc1	> 100	> 100	> 100	> 100		> 100	> 100	> 100	> 100	> 100	> 100	> 100	> 100	> 100	> 100
Clc1ccc(-c2nnc3nnc4c5ccccc5[nH]c4n23)cc1	> 100	> 100	> 100	> 100		> 100	> 100	> 100	> 100	> 100	> 100	> 100	> 100	> 100	> 100
Oc1ccccc1-c1nnc2nnc3c4ccccc4[nH]c3n12	> 70	> 100	> 70	> 100		> 100	> 70	> 70	> 70	70	> 100	> 70	> 100	> 100	> 100
Clc1ccccc1-c1nnc2nnc3c4ccccc4[nH]c3n12	> 100	> 100	> 100	> 100		> 100	> 100	> 100	> 100	> 100	> 100	> 100	> 100	> 100	> 100
Brc1cccc(-c2nnc3nnc4c5ccccc5[nH]c4n23)c1	> 100	> 100	> 100	> 100		> 100	> 100	> 100	> 100	> 100	> 100	> 100	> 100	> 100	> 100
c1ccc2c(-c3nnc4nnc5c6ccccc6[nH]c5n34)c3ccccc3cc2c1		> 56			>33.33	3	> 100	> 100		≥ 100	> 100	> 100	> 100	> 100	56
c1ccc(-c2nnc3nnc4c5ccccc5[nH]c4n23)cc1	> 100	> 100	> 100	> 100		> 100	> 100	> 100	> 100	> 100	> 100	> 100	> 100	> 100	> 100
O=[N+]([O-])c1cccc(-c2nnc3nnc4c5ccccc5[nH]c4n23)c1	> 100	> 100	> 100	> 100		> 100	> 100	> 100	> 100	> 100	> 100	> 100	> 100	> 100	> 100
